Positions of bridges follow the written chain, without caps; N, C: chain ends. Non-standard residues stand in square brackets, D forms with d. Residues, ends and D or L forms follow the SMILES beside them. Trp(1-Me) = Cn1cc(C[C@H](N)C(=O)O)c2ccccc21; 1Nal = N[C@@H](Cc1cccc2ccccc12)C(=O)O
What was measured:
Assay in all cases: cell-based
hNav1.7 = hNav1.7 (Homo sapiens, UniProt Q15858); details: Nav1.7 Use IC50
hNav1.3 = hNav1.3 (Homo sapiens, UniProt Q9NY46); type: cell-based; details: Nav1.3 Use IC50
Chain of hNav1.3 (Q9NY46 whole entry, looked up): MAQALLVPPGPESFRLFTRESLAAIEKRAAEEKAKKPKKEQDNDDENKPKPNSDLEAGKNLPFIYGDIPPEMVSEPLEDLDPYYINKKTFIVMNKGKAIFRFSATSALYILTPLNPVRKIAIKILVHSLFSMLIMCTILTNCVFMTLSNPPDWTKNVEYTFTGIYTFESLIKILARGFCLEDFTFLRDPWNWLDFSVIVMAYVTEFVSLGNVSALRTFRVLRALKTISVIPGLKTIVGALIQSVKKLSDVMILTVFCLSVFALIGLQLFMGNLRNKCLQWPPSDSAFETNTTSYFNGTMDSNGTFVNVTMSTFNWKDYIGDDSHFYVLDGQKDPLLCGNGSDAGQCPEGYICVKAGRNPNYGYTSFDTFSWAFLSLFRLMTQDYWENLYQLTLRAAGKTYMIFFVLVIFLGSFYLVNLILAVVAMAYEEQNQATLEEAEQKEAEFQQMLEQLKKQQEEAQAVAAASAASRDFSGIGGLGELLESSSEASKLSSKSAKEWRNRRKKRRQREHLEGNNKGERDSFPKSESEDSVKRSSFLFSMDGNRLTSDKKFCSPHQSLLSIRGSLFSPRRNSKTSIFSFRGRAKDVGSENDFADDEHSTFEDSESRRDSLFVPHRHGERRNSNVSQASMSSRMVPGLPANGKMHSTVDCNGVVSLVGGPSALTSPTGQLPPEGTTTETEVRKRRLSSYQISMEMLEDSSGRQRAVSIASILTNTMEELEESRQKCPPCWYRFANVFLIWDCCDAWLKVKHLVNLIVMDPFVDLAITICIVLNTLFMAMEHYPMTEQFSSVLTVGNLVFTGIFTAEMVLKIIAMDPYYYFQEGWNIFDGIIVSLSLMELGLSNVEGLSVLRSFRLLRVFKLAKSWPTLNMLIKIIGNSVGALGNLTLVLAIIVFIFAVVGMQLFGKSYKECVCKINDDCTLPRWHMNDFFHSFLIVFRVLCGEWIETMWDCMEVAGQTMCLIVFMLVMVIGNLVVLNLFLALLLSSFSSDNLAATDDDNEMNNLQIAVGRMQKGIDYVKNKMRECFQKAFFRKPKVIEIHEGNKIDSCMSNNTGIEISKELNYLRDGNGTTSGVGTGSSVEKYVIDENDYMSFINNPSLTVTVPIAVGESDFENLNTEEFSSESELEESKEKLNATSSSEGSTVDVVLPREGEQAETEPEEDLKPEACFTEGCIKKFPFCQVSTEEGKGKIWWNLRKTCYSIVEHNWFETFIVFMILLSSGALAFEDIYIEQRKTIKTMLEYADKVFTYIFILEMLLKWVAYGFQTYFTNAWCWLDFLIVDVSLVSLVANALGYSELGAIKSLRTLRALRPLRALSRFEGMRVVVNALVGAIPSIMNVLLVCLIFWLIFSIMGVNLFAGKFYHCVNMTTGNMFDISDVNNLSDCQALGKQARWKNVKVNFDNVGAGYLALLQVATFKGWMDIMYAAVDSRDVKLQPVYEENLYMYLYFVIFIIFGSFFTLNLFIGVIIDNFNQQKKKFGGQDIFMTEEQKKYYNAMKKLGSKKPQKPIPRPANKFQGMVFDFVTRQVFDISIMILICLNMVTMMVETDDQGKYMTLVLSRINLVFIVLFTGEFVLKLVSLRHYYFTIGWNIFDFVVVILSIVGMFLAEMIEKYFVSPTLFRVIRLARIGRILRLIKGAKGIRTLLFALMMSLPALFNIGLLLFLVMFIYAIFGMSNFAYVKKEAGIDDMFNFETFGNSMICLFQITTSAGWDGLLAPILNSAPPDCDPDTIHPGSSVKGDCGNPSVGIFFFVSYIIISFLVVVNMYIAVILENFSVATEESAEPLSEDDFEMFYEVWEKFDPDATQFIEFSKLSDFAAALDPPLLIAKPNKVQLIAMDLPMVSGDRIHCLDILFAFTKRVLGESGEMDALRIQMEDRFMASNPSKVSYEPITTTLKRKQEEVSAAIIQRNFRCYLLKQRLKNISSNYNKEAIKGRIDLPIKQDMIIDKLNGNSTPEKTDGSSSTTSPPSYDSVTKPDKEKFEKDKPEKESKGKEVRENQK

hNav1.5 = hNav1.5 (Homo sapiens, UniProt Q14524)
Chain of hNav1.5 (Q14524 whole entry, looked up): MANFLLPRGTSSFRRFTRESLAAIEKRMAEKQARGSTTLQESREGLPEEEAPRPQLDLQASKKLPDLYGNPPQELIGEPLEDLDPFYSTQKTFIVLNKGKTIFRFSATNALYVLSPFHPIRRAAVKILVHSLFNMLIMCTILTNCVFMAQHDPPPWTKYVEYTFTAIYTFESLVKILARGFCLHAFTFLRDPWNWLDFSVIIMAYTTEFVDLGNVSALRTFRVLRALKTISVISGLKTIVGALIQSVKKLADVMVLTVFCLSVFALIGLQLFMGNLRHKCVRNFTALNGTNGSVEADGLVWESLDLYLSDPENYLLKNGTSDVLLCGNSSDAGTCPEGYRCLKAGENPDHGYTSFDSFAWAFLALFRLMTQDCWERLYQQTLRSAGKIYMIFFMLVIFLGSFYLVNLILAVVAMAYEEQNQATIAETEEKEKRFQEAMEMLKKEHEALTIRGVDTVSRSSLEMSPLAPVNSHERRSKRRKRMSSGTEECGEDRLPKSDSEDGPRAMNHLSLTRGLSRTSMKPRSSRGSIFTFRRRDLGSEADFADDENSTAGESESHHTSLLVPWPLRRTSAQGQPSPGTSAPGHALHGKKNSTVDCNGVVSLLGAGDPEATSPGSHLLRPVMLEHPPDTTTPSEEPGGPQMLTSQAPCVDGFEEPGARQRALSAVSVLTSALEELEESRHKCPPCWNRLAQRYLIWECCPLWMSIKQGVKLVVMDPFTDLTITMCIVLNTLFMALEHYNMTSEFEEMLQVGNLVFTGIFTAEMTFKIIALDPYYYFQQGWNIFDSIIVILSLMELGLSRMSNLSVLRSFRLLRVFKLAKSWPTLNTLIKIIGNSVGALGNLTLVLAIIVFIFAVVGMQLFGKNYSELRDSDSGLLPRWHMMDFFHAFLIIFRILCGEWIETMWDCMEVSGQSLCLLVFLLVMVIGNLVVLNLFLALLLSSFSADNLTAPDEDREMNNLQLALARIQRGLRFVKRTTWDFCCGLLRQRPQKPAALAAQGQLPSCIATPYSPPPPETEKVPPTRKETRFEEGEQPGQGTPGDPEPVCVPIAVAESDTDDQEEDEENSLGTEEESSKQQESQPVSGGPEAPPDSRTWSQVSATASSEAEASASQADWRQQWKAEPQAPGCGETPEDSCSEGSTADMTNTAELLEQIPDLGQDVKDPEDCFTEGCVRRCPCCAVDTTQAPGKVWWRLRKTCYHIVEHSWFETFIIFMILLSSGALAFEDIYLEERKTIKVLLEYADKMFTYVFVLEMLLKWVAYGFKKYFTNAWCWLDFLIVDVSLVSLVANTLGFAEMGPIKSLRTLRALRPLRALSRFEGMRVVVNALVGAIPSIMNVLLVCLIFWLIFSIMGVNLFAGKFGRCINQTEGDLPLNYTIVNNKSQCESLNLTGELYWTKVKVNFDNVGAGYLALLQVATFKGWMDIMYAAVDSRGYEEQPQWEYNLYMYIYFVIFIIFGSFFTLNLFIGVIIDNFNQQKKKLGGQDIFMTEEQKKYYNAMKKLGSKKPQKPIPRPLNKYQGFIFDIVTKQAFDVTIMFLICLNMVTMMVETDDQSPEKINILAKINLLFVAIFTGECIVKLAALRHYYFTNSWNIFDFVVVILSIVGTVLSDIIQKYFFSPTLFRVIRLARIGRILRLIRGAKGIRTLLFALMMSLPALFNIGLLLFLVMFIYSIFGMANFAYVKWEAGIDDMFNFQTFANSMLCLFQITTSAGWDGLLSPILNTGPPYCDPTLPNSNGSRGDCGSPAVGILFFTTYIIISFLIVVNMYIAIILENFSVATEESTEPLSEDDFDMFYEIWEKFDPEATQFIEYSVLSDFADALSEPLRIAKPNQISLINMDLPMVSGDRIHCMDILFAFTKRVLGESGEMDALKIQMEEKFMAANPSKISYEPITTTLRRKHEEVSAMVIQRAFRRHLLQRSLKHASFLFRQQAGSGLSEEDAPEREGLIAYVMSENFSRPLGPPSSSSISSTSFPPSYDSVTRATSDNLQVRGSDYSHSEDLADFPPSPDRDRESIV

Row | Structure (SMILES) | IC50 (hNav1.7) | IC50 (hNav1.3) | IC50 (hNav1.5)
1 | CC[C@H](C)[C@@H]1NC(=O)[C@@H]2CSSC[C@@H]3NC(=O)[C@H](C(C)C)NC(=O)[C@H](CC(C)C)NC(=O)[C@H](CC(N)=O)NC(=O)[C@@H]4CCCN4C(=O)[C@H](CCCNC(=N)N)NC(=O)[C@H](CSSC[C@H](NC(=O)[C@@H](N)CC(=O)O)C(=O)N[C@@H](CC(C)C)C(=O)NCC(=O)N[C@@H](Cc4ccccc4)C(=O)N[C@@H](CCSC)C(=O)N[C@@H](CCCNC(=N)N)C(=O)N[C@@H](CCCCN)C(=O)N2)NC(=O)[C@H](CSSC[C@@H](C(=O)N[C@@H](CCCCN)C(=O)N[C@@H](Cc2ccc(O)cc2)C(=O)N[C@H](C(=O)N[C@@H](Cc2cccc4ccccc24)C(N)=O)C(C)C)NC(=O)[C@H](Cc2c[nH]c4ccccc24)NC(=O)[C@H](CCCCN)NC(=O)[C@H](Cc2cnc[nH]2)NC(=O)[C@H]([C@@H](C)O)NC(=O)[C@H](CCCNC(=N)N)NC(=O)[C@H](CO)NC3=O)NC(=O)[C@H](CCCCN)NC(=O)[C@H](CC(=O)O)NC(=O)[C@H](CC(N)=O)NC(=O)[C@H](CC(=O)O)NC(=O)[C@@H]2CCCN2C1=O [[1-Nal34]GpTx-1(1-34)] (H-DCLGFMRKCIPDNDKCCRPNLVCSRTHKWCKYV[1Nal]-NH2; disulfide 2-17, 9-23, 16-30) | 4 nM | 7 nM | 1860 nM
2 | CC[C@H](C)[C@@H]1NC(=O)[C@@H]2CSSC[C@@H]3NC(=O)[C@H](C(C)C)NC(=O)[C@H](CC(C)C)NC(=O)[C@H](CC(N)=O)NC(=O)[C@@H]4CCCN4C(=O)[C@H](CCCNC(=N)N)NC(=O)[C@H](CSSC[C@H](NC(=O)[C@@H](N)CC(=O)O)C(=O)N[C@@H](CC(C)C)C(=O)NCC(=O)N[C@@H](Cc4ccccc4)C(=O)N[C@@H](CCSC)C(=O)N[C@@H](CCCNC(=N)N)C(=O)N[C@@H](CCCCN)C(=O)N2)NC(=O)[C@H](CSSC[C@@H](C(=O)N[C@@H](CCCCN)C(=O)N[C@@H](Cc2cn(C)c4ccccc24)C(=O)N[C@H](C(=O)N[C@@H](Cc2ccccc2)C(N)=O)C(C)C)NC(=O)[C@H](Cc2c[nH]c4ccccc24)NC(=O)[C@H](CCCCN)NC(=O)[C@H](Cc2c[nH]cn2)NC(=O)[C@H]([C@@H](C)O)NC(=O)[C@H](CCCNC(=N)N)NC(=O)[C@H](CO)NC3=O)NC(=O)[C@H](CCCCN)NC(=O)[C@H](CC(=O)O)NC(=O)[C@H](CC(N)=O)NC(=O)[C@H](CC(=O)O)NC(=O)[C@@H]2CCCN2C1=O [[1′NMeW32]GpTx-1(1-34)] (H-DCLGFMRKCIPDNDKCCRPNLVCSRTHKWCK[Trp(1-Me)]VF-NH2; disulfide 2-17, 9-23, 16-30) | 6 nM | 18 nM | 6850 nM
3 | CC[C@H](C)[C@@H]1NC(=O)[C@@H]2CSSC[C@@H]3NC(=O)[C@H](C(C)C)NC(=O)[C@H](CC(C)C)NC(=O)[C@H](CC(N)=O)NC(=O)[C@@H]4CCCN4C(=O)[C@H](CCCNC(=N)N)NC(=O)[C@H](CSSC[C@H](NC(=O)[C@@H](N)CC(=O)O)C(=O)N[C@@H](CC(C)C)C(=O)NCC(=O)N[C@@H](Cc4ccccc4)C(=O)N[C@@H](CCSC)C(=O)N[C@@H](CCCNC(=N)N)C(=O)N[C@@H](CCCCN)C(=O)N2)NC(=O)[C@H](CSSC[C@@H](C(=O)N[C@@H](CCCCN)C(=O)N[C@@H](Cc2ccc(O)cc2)C(=O)N[C@@H](Cc2cn(C)c4ccccc24)C(=O)N[C@@H](Cc2ccccc2)C(N)=O)NC(=O)[C@H](Cc2c[nH]c4ccccc24)NC(=O)[C@H](CCCCN)NC(=O)[C@H](Cc2c[nH]cn2)NC(=O)[C@H]([C@@H](C)O)NC(=O)[C@H](CCCNC(=N)N)NC(=O)[C@H](CO)NC3=O)NC(=O)[C@H](CCCCN)NC(=O)[C@H](CC(=O)O)NC(=O)[C@H](CC(N)=O)NC(=O)[C@H](CC(=O)O)NC(=O)[C@@H]2CCCN2C1=O [[1′NMeW33]GpTx-1(1-34)] (H-DCLGFMRKCIPDNDKCCRPNLVCSRTHKWCKY[Trp(1-Me)]F-NH2; disulfide 2-17, 9-23, 16-30) | 54 nM | 37 nM | 9540 nM
4 | CC[C@H](C)[C@@H]1NC(=O)[C@@H]2CSSC[C@@H]3NC(=O)[C@H](C(C)C)NC(=O)[C@H](CC(C)C)NC(=O)[C@H](CC(N)=O)NC(=O)[C@@H]4CCCN4C(=O)[C@H](CCCNC(=N)N)NC(=O)[C@H](CSSC[C@H](NC(=O)[C@@H](N)CC(=O)O)C(=O)N[C@@H](CC(C)C)C(=O)NCC(=O)N[C@@H](C)C(=O)N[C@@H](Cc4cccc5ccccc45)C(=O)N[C@@H](CCCNC(=N)N)C(=O)N[C@@H](CCCCN)C(=O)N2)NC(=O)[C@H](CSSC[C@@H](C(=O)N[C@@H](CCCCN)C(=O)N[C@@H](Cc2ccc(O)cc2)C(=O)N[C@H](C(=O)N[C@@H](Cc2ccccc2)C(N)=O)C(C)C)NC(=O)[C@H](Cc2c[nH]c4ccccc24)NC(=O)[C@H](CCCCN)NC(=O)[C@H](Cc2cnc[nH]2)NC(=O)[C@H]([C@@H](C)O)NC(=O)[C@H](CCCNC(=N)N)NC(=O)[C@H](CO)NC3=O)NC(=O)[C@H](CCCCN)NC(=O)[C@H](CC(=O)O)NC(=O)[C@H](CC(N)=O)NC(=O)[C@H](CC(=O)O)NC(=O)[C@@H]2CCCN2C1=O [[Ala5;1-Nal6]GpTx-1(1-34)] | 2 nM | 8 nM | 3810 nM
5 | CC[C@H](C)[C@@H]1NC(=O)[C@@H]2CSSC[C@@H]3NC(=O)[C@H](C(C)C)NC(=O)[C@H](CC(C)C)NC(=O)[C@H](CC(N)=O)NC(=O)[C@@H]4CCCN4C(=O)[C@H](CCCNC(=N)N)NC(=O)[C@H](CSSC[C@H](NC(=O)[C@@H](N)CC(=O)O)C(=O)N[C@@H](CC(C)C)C(=O)NCC(=O)N[C@@H](C)C(=O)N[C@@H](CCSC)C(=O)N[C@@H](CCCNC(=N)N)C(=O)N[C@@H](CCCCN)C(=O)N2)NC(=O)[C@H](CSSC[C@@H](C(=O)N[C@@H](CCCCN)C(=O)N[C@@H](Cc2cccc4ccccc24)C(=O)N[C@H](C(=O)N[C@@H](Cc2ccccc2)C(N)=O)C(C)C)NC(=O)[C@H](Cc2c[nH]c4ccccc24)NC(=O)[C@H](CCCCN)NC(=O)[C@H](Cc2c[nH]cn2)NC(=O)[C@H]([C@@H](C)O)NC(=O)[C@H](CCCNC(=N)N)NC(=O)[C@H](CO)NC3=O)NC(=O)[C@H](CCCCN)NC(=O)[C@H](CC(=O)O)NC(=O)[C@H](CC(N)=O)NC(=O)[C@H](CC(=O)O)NC(=O)[C@@H]2CCCN2C1=O [[Ala5;1-Nal32]GpTx-1(1-34)] (H-DCLGAMRKCIPDNDKCCRPNLVCSRTHKWCK[1Nal]VF-NH2; disulfide 2-17, 9-23, 16-30) | 28 nM | 122 nM | > 10000 nM
6 | CC[C@H](C)[C@@H]1NC(=O)[C@@H]2CSSC[C@@H]3NC(=O)[C@H](C(C)C)NC(=O)[C@H](CC(C)C)NC(=O)[C@H](CC(N)=O)NC(=O)[C@@H]4CCCN4C(=O)[C@H](CCCNC(=N)N)NC(=O)[C@H](CSSC[C@H](NC(=O)[C@@H](N)CC(=O)O)C(=O)N[C@@H](CC(C)C)C(=O)NCC(=O)N[C@@H](C)C(=O)N[C@@H](CCSC)C(=O)N[C@@H](CCCNC(=N)N)C(=O)N[C@@H](CCCCN)C(=O)N2)NC(=O)[C@H](CSSC[C@@H](C(=O)N[C@@H](CCCCN)C(=O)N[C@@H](Cc2ccc(O)cc2)C(=O)N[C@@H](Cc2cccc4ccccc24)C(=O)N[C@@H](Cc2ccccc2)C(N)=O)NC(=O)[C@H](Cc2c[nH]c4ccccc24)NC(=O)[C@H](CCCCN)NC(=O)[C@H](Cc2c[nH]cn2)NC(=O)[C@H]([C@@H](C)O)NC(=O)[C@H](CCCNC(=N)N)NC(=O)[C@H](CO)NC3=O)NC(=O)[C@H](CCCCN)NC(=O)[C@H](CC(=O)O)NC(=O)[C@H](CC(N)=O)NC(=O)[C@H](CC(=O)O)NC(=O)[C@@H]2CCCN2C1=O [[Ala5;1-Nal33]GpTx-1(1-34)] (H-DCLGAMRKCIPDNDKCCRPNLVCSRTHKWCKY[1Nal]F-NH2; disulfide 2-17, 9-23, 16-30) | 48 nM | 201 nM | > 10000 nM
7 | CC[C@H](C)[C@@H]1NC(=O)[C@@H]2CSSC[C@@H]3NC(=O)[C@H](C(C)C)NC(=O)[C@H](CC(C)C)NC(=O)[C@H](CC(N)=O)NC(=O)[C@@H]4CCCN4C(=O)[C@H](CCCNC(=N)N)NC(=O)[C@H](CSSC[C@H](NC(=O)[C@@H](N)CC(=O)O)C(=O)N[C@@H](CC(C)C)C(=O)NCC(=O)N[C@@H](C)C(=O)N[C@@H](CCSC)C(=O)N[C@@H](CCCNC(=N)N)C(=O)N[C@@H](CCCCN)C(=O)N2)NC(=O)[C@H](CSSC[C@@H](C(=O)N[C@@H](CCCCN)C(=O)N[C@@H](Cc2ccc(O)cc2)C(=O)N[C@H](C(=O)N[C@@H](Cc2ccccc2)C(N)=O)C(C)C)NC(=O)[C@H](Cc2c[nH]c4ccccc24)NC(=O)[C@H](CCCNC(=N)N)NC(=O)[C@H](Cc2c[nH]cn2)NC(=O)[C@H]([C@@H](C)O)NC(=O)[C@H](CCCNC(=N)N)NC(=O)[C@H](CO)NC3=O)NC(=O)[C@H](CCCCN)NC(=O)[C@H](CC(=O)O)NC(=O)[C@H](CC(N)=O)NC(=O)[C@H](CC(=O)O)NC(=O)[C@@H]2CCCN2C1=O [[Ala5;Arg28]GpTx-1(1-34)] (H-DCLGAMRKCIPDNDKCCRPNLVCSRTHRWCKYVF-NH2; disulfide 2-17, 9-23, 16-30) | 77 nM | 440 nM | > 10000 nM
8 | CC[C@H](C)[C@@H]1NC(=O)[C@@H]2CSSC[C@@H]3NC(=O)[C@H](C(C)C)NC(=O)[C@H](CC(C)C)NC(=O)[C@H](CC(N)=O)NC(=O)[C@@H]4CCCN4C(=O)[C@H](CCCNC(=N)N)NC(=O)[C@H](CSSC[C@H](NC(=O)[C@@H](N)CC(=O)O)C(=O)N[C@@H](CC(C)C)C(=O)NCC(=O)N[C@@H](C)C(=O)N[C@@H](CCSC)C(=O)N[C@@H](CCCNC(=N)N)C(=O)N[C@@H](CCCCN)C(=O)N2)NC(=O)[C@H](CSSC[C@@H](C(=O)N[C@@H](CCCCN)C(=O)N[C@@H](Cc2c[nH]c4ccccc24)C(=O)N[C@H](C(=O)N[C@@H](Cc2ccccc2)C(N)=O)C(C)C)NC(=O)[C@H](Cc2c[nH]c4ccccc24)NC(=O)[C@H](CCCCN)NC(=O)[C@H](Cc2c[nH]cn2)NC(=O)[C@H]([C@@H](C)O)NC(=O)[C@H](CCCNC(=N)N)NC(=O)[C@H](CO)NC3=O)NC(=O)[C@H](CCCCN)NC(=O)[C@H](CC(=O)O)NC(=O)[C@H](CC(N)=O)NC(=O)[C@H](CC(=O)O)NC(=O)[C@@H]2CCCN2C1=O [[Ala5;Trp32]GpTx-1(1-34)] (H-DCLGAMRKCIPDNDKCCRPNLVCSRTHKWCKWVF-NH2; disulfide 2-17, 9-23, 16-30) | 103 nM | 2980 nM | > 10000 nM
